Reference: patent US10202361B2, “Pyridazinones as herbicides” (E I DU PONT DE NEMOURS AND COMPANY, priority 2014, dated 2019)

Experiments:
Type in all cases: in vivo
[1] = test system: barnyardgrass (Echinochloa crus-galli); experiment: Test E pre-/postemergence greenhouse herbicide test; settings: scale 0 to 100
Outline: (§1)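 Pre- and postemergence greenhouse spray; compound in non-phytotoxic solvent + surfactant. Pre: silt loam soil at planting. Post: 1- to 4-leaf plants, 2 to 18 cm, peat-based medium. Visual score 0–100 vs untreated controls at 14 to 21 d.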

[2] = test system: dayflower, VA (Virginia dayflower, Commelina virginica); experiment: as above; settings: scale 0 to 100
Outline: as §1

[3] = test system: foxtail, giant (giant foxtail, Setaria faberii); experiment: as above; settings: Preemergence, scale 0 to 100
Outline: as §1

[4] = test system: foxtail, green (green foxtail, Setaria viridis); experiment: as above; settings: Preemergence, scale 0 to 100
Outline: as §1

[5] = test system: ragweed (common ragweed, Ambrosia elatior); experiment: as above; settings: Preemergence, scale 0 to 100
Outline: as §1

[6] = test system: sandbur (southern sandbur, Cenchrus echinatus); experiment: as above; settings: scale 0 to 100
Outline: as §1

[7] = test system: smartweed (ladysthumb smartweed, Polygonum persicaria); experiment: as above; settings: scale 0 to 100
Outline: as §1

[8] = test system: velvetleaf (Abutilon theophrasti); experiment: as above; settings: Preemergence, scale 0 to 100
Outline: as §1

[9] = test system: waterhemp_RES1 (ALS & Triazine resistant common waterhemp, Amaranthus rudis); experiment: Test E postemergence greenhouse herbicide test; settings: scale 0 to 100
Procedure: (§2) At the same time, plants from these crop and weed species and also waterhemp_RES1, (ALS & Triazine resistant common waterhemp, Amaranthus rudis), and waterhemp_RES2, (ALS & HPPD resistant common waterhemp, Amaranthus rudis) were planted in pots containing Redi-Earth® planting medium (Scotts Company, 14111 Scottslawn Road, Marysville, Ohio 43041) comprising spaghnum peat moss, vermiculite, wetting agent and starter nutrients were treated with postemergence applications of test chemicals formulated in the same manner. Plants ranged in height from 2 to 18 cm for postemergence treatments (1- to 4-leaf stage). Treated plants and controls were maintained in a greenhouse for 14 to 21 d, after which time all species were compared to controls and visually evaluated. Plant response ratings, summarized in Table E, are based on a scale of 0 to 100 where 0 is no effect and 100 is complete control. A dash (-) response means no test result.

[10] = test system: waterhemp_RES2 (ALS & HPPD resistant common waterhemp, Amaranthus rudis); experiment: Test E postemergence greenhouse herbicide test; settings: scale 0 to 100
Procedure: as §2

## COc1cc(=O)n(-c2ccc(F)cc2)nc1Cc1ccnc(C(F)(F)F)c1 [Compound 17, 2-(4-fluorophenyl)-5-methoxy-6-[[2-(trifluoromethyl)-4-pyridinyl]methyl]-3 (2H)-pyridazinone]
[1]; Postemergence, 16 g ai/ha
  Plant response rating: Barnyardgrass: 0
[1]; Postemergence, 31 g ai/ha
  Plant response rating: Barnyardgrass: 10
[1]; Postemergence, 62 g ai/ha
  Plant response rating: Barnyardgrass: 20
[1]; Postemergence, 125 g ai/ha
  Plant response rating: Barnyardgrass: 20
[1]; Postemergence, 250 g ai/ha
  Plant response rating: Barnyardgrass: 65
[1]; Preemergence, 16 g ai/ha
  Plant response rating: Barnyardgrass: 0
[1]; Preemergence, 31 g ai/ha
  Plant response rating: Barnyardgrass: 20
[1]; Preemergence, 62 g ai/ha
  Plant response rating: Barnyardgrass: 35
[1]; Preemergence, 125 g ai/ha
  Plant response rating: Barnyardgrass: 80
[1]; Preemergence, 250 g ai/ha
  Plant response rating: Barnyardgrass: 80
[2]; Postemergence, 16 g ai/ha
  Plant response rating: Dayflower, VA: 10
[2]; Postemergence, 31 g ai/ha
  Plant response rating: Dayflower, VA: 10
[2]; Postemergence, 62 g ai/ha
  Plant response rating: Dayflower, VA: 15
[2]; Postemergence, 125 g ai/ha
  Plant response rating: Dayflower, VA: 30
[2]; Postemergence, 250 g ai/ha
  Plant response rating: Dayflower, VA: 40
[2]; Preemergence, 16 g ai/ha
  Plant response rating: Dayflower, VA: 0
[2]; Preemergence, 31 g ai/ha
  Plant response rating: Dayflower, VA: 10
[2]; Preemergence, 62 g ai/ha
  Plant response rating: Dayflower, VA: 20
[2]; Preemergence, 250 g ai/ha
  Plant response rating: Dayflower, VA: 80
[3]; 16 g ai/ha
  Plant response rating: Foxtail, Giant: 0
[3]; 31 g ai/ha
  Plant response rating: Foxtail, Giant: 40
[3]; 62 g ai/ha
  Plant response rating: Foxtail, Giant: 65
[3]; 125 g ai/ha
  Plant response rating: Foxtail, Giant: 100
[3]; 250 g ai/ha
  Plant response rating: Foxtail, Giant: 100
[4]; 16 g ai/ha
  Plant response rating: Foxtail, Green: 0
[4]; 31 g ai/ha
  Plant response rating: Foxtail, Green: 50
[4]; 62 g ai/ha
  Plant response rating: Foxtail, Green: 75
[4]; 125 g ai/ha
  Plant response rating: Foxtail, Green: 75
[4]; 250 g ai/ha
  Plant response rating: Foxtail, Green: 100
[5]; 16 g ai/ha
  Plant response rating: Ragweed: 0
[5]; 31 g ai/ha
  Plant response rating: Ragweed: 0
[5]; 62 g ai/ha
  Plant response rating: Ragweed: 10
[5]; 125 g ai/ha
  Plant response rating: Ragweed: 35
[5]; 250 g ai/ha
  Plant response rating: Ragweed: 80
[6]; Postemergence, 16 g ai/ha
  Plant response rating: Sandbur: 10
[6]; Postemergence, 31 g ai/ha
  Plant response rating: Sandbur: 20
[6]; Postemergence, 62 g ai/ha
  Plant response rating: Sandbur: 20
[6]; Postemergence, 125 g ai/ha
  Plant response rating: Sandbur: 35
[6]; Postemergence, 250 g ai/ha
  Plant response rating: Sandbur: 75
[6]; Preemergence, 16 g ai/ha
  Plant response rating: Sandbur: 0
[6]; Preemergence, 31 g ai/ha
  Plant response rating: Sandbur: 5
[6]; Preemergence, 62 g ai/ha
  Plant response rating: Sandbur: 40
[6]; Preemergence, 125 g ai/ha
  Plant response rating: Sandbur: 70
[6]; Preemergence, 250 g ai/ha
  Plant response rating: Sandbur: 98
[7]; Postemergence, 16 g ai/ha
  Plant response rating: Smartweed: 10
[7]; Postemergence, 31 g ai/ha
  Plant response rating: Smartweed: 15
[7]; Postemergence, 62 g ai/ha
  Plant response rating: Smartweed: 30
[7]; Postemergence, 125 g ai/ha
  Plant response rating: Smartweed: 40
[7]; Postemergence, 250 g ai/ha
  Plant response rating: Smartweed: 60
[7]; Preemergence, 16 g ai/ha
  Plant response rating: Smartweed: 0
[7]; Preemergence, 31 g ai/ha
  Plant response rating: Smartweed: 0
[7]; Preemergence, 62 g ai/ha
  Plant response rating: Smartweed: 0
[7]; Preemergence, 125 g ai/ha
  Plant response rating: Smartweed: 20
[7]; Preemergence, 250 g ai/ha
  Plant response rating: Smartweed: 75
[8]; 16 g ai/ha
  Plant response rating: Velvetleaf: 0
[8]; 31 g ai/ha
  Plant response rating: Velvetleaf: 0
[8]; 62 g ai/ha
  Plant response rating: Velvetleaf: 20
[8]; 125 g ai/ha
  Plant response rating: Velvetleaf: 25
[8]; 250 g ai/ha
  Plant response rating: Velvetleaf: 70
[9]; 16 g ai/ha
  Plant response rating: Waterhemp_RES1: 50
[9]; 31 g ai/ha
  Plant response rating: Waterhemp_RES1: 60
[9]; 62 g ai/ha
  Plant response rating: Waterhemp_RES1: 60
[9]; 125 g ai/ha
  Plant response rating: Waterhemp_RES1: 85
[9]; 250 g ai/ha
  Plant response rating: Waterhemp_RES1: 90
[10]; 16 g ai/ha
  Plant response rating: Waterhemp_RES2: 60
[10]; 31 g ai/ha
  Plant response rating: Waterhemp_RES2: 80
[10]; 62 g ai/ha
  Plant response rating: Waterhemp_RES2: 80
[10]; 125 g ai/ha
  Plant response rating: Waterhemp_RES2: 90
[10]; 250 g ai/ha
  Plant response rating: Waterhemp_RES2: 95

## CCOc1cc(=O)n(-c2ccc(F)cc2)nc1Cc1ccnc(C(F)(F)F)c1 [Compound 25, 5-ethoxy-2-(4-fluorophenyl)-6-[[2-(trifluoromethyl)-4-pyridinyl]methyl]-3 (2H)-pyridazinone]
[1]; Preemergence, 8 g ai/ha
  Plant response rating: Barnyardgrass: 0
[1]; Preemergence, 16 g ai/ha
  Plant response rating: Barnyardgrass: 5
[1]; Preemergence, 31 g ai/ha
  Plant response rating: Barnyardgrass: 15
[1]; Preemergence, 62 g ai/ha
  Plant response rating: Barnyardgrass: 35
[1]; Preemergence, 125 g ai/ha
  Plant response rating: Barnyardgrass: 60
[2]; Preemergence, 8 g ai/ha
  Plant response rating: Dayflower, VA: 0
[2]; Preemergence, 16 g ai/ha
  Plant response rating: Dayflower, VA: 0
[2]; Preemergence, 31 g ai/ha
  Plant response rating: Dayflower, VA: 15
[2]; Preemergence, 62 g ai/ha
  Plant response rating: Dayflower, VA: 20
[2]; Preemergence, 125 g ai/ha
  Plant response rating: Dayflower, VA: 70
[3]; 8 g ai/ha
  Plant response rating: Foxtail, Giant: 0
[3]; 16 g ai/ha
  Plant response rating: Foxtail, Giant: 0
[3]; 31 g ai/ha
  Plant response rating: Foxtail, Giant: 0
[3]; 62 g ai/ha
  Plant response rating: Foxtail, Giant: 5
[3]; 125 g ai/ha
  Plant response rating: Foxtail, Giant: 20
[4]; 8 g ai/ha
  Plant response rating: Foxtail, Green: 0
[4]; 16 g ai/ha
  Plant response rating: Foxtail, Green: 5
[4]; 31 g ai/ha
  Plant response rating: Foxtail, Green: 35
[4]; 62 g ai/ha
  Plant response rating: Foxtail, Green: 90
[4]; 125 g ai/ha
  Plant response rating: Foxtail, Green: 100
[5]; 8 g ai/ha
  Plant response rating: Ragweed: 0
[5]; 16 g ai/ha
  Plant response rating: Ragweed: 0
[5]; 31 g ai/ha
  Plant response rating: Ragweed: 0
[5]; 62 g ai/ha
  Plant response rating: Ragweed: 20
[5]; 125 g ai/ha
  Plant response rating: Ragweed: 50
[6]; Preemergence, 8 g ai/ha
  Plant response rating: Sandbur: 0
[6]; Preemergence, 16 g ai/ha
  Plant response rating: Sandbur: 0
[6]; Preemergence, 31 g ai/ha
  Plant response rating: Sandbur: 20
[6]; Preemergence, 62 g ai/ha
  Plant response rating: Sandbur: 30
[6]; Preemergence, 125 g ai/ha
  Plant response rating: Sandbur: 60
[8]; 8 g ai/ha
  Plant response rating: Velvetleaf: 0
[8]; 16 g ai/ha
  Plant response rating: Velvetleaf: 20
[8]; 31 g ai/ha
  Plant response rating: Velvetleaf: 0
[8]; 62 g ai/ha
  Plant response rating: Velvetleaf: 30
[8]; 125 g ai/ha
  Plant response rating: Velvetleaf: 80
